Experiment [1] concerns Brassica oleracea. As to the kind of experiment: Induction of systemic acquired resistance in Brassica oleracea (white cabbage) plants assessed as increase in chitinase activity at 1 mM sprayed on leaves exposed to compound for 2 to 48 hr measured 10 days after planting by colorimetric assay. The class given is functional, organism-based. Particulars: TDE = time-dependent effect.

Experiment [2] has as its system Hyaloperonospora parasitica. As to the kind of experiment: Induction of systemic acquired resistance against Hyaloperonospora parasitica-induced downy mildew disease in white cabbage assessed as disease index at 1 mM sprayed on leaves exposed to compound for 2 to 48 hr measured 10 days after planting. The class given is functional, organism-based. Particulars: TDE = time-dependent effect.

For experiment [3], the system named is Brassica oleracea. Description: Induction of systemic acquired resistance in Brassica oleracea (white cabbage) plants assessed as increase in glucanase activity at 1 mM sprayed on seeds by colorimetric assay. The class given is functional, organism-based.
Experiment [4] concerns Brassica oleracea. Description: Induction of systemic acquired resistance in Brassica oleracea (white cabbage) plants assessed as increase in chitinase activity at 1 mM sprayed on seeds by colorimetric assay. The format is functional, organism-based.
The test system of experiment [5] is Brassica oleracea. As to the kind of experiment: Induction of systemic acquired resistance in Brassica oleracea (white cabbage) plants assessed as increase in glucanase activity at 1 mM sprayed on leaves of 3 weeks old seedlings by colorimetric assay. The format is functional, organism-based.
Experiment [6] relates to Brassica oleracea. Description: Induction of systemic acquired resistance in Brassica oleracea (white cabbage) plants assessed as increase in glucanase activity at 1 mM sprayed on leaves exposed to compound for 2 to 48 hr measured 10 days after planting by colorimetric assay. Particulars: TDE = time-dependent effect. The class given is functional, organism-based.
For experiment [7], the system named is Brassica oleracea. Description: Induction of systemic acquired resistance in Brassica oleracea (white cabbage) plants assessed as increase in chitinase activity at 1 mM sprayed on leaves of 3 weeks old seedlings by colorimetric assay. The class given is functional, organism-based.
For experiment [8], the system named is Brassica oleracea. As to the kind of experiment: Induction of systemic acquired resistance in Brassica oleracea (white cabbage) plants assessed as increase in glucanase activity at 10 mM sprayed on leaves of 3 weeks old seedlings by colorimetric assay. The class given is functional, organism-based.
For experiment [9], the system named is Brassica oleracea. Description: Induction of systemic acquired resistance in Brassica oleracea (white cabbage) plants assessed as increase in glucanase activity at 10 mM sprayed on seeds by colorimetric assay. The format is functional, organism-based.
For experiment [10], the system named is Brassica oleracea. As to the kind of experiment: Induction of systemic acquired resistance in Brassica oleracea (white cabbage) plants assessed as increase in chitinase activity at 10 mM sprayed on leaves of 3 weeks old seedlings by colorimetric assay. The class given is functional, organism-based.
Experiment [11] concerns Brassica oleracea. As to the kind of experiment: Induction of systemic acquired resistance in Brassica oleracea (white cabbage) plants assessed as increase in chitinase activity at 10 mM sprayed on seeds by colorimetric assay. The format is functional, organism-based.
The subject of experiment [12] is Hyaloperonospora parasitica. As to the kind of experiment: Induction of systemic acquired resistance against Hyaloperonospora parasitica-induced downy mildew disease in white cabbage assessed as infected leaf area sprayed on leaves of one week old seedlings relative to untreated control. The format is functional.
For experiment [13], the system named is Hyaloperonospora parasitica. Description: Induction of systemic acquired resistance against Hyaloperonospora parasitica-induced downy mildew disease in white cabbage assessed as infected leaf area at 1 mM sprayed on leaves of one week old seedlings relative to untreated control. The class given is functional, organism-based.

Activity calls are given as the source filed them. The calls are words filed in the database; no cut-off is given here.

For `O=C(O)c1cc(Cl)nc(Cl)c1`, the Activity result (with Brassica oleracea [1]; in [2]; with Brassica oleracea [6]) was “tde” each time. For the same molecule, the outcome in the experiment with Brassica oleracea [3], with Brassica oleracea [4], with Brassica oleracea [5] and in the experiment with Brassica oleracea [7] was Active.
Regarding MANGANESE CHLORIDE ANHYDROUS, the outcome with Brassica oleracea [8] and with Brassica oleracea [10] was Active. Further, the result with Brassica oleracea [9] and in the experiment on Brassica oleracea [11] was inactive.
As to `CCCOC(=O)NCCCN(C)C.Cl` [PROPAMOCARB HYDROCHLORIDE], the Activity in experiment [12] was found to be 56.4%.
As to CUPRIC SULFATE, in experiment [13], the Activity turned out to be 0.01%.

The values above are taken from ChEMBL document CHEMBL3046759, “Seed and leaf treatments with natural compounds to induce resistance against Peronospora parasitica in Brassica oleracea” (2012).
